From patent publication US9920053B2, “N-(hetero)aryl-substituted heteroyclic derivatives useful for the treatment of diseases or conditions related to the central nervous system” (CHRONOS THERAPEUTICS LIMITED, priority 2014, dated 2018) come the findings set out here.

In experiment [1] the target is human norepinephrine transporter (NET) (Homo sapiens (Human), UniProt P23975). Kind of experiment: Scintillation Proximity Assay (SPA) for human NET binding ([3H]nisoxetine). The following applies: recombinant human NET, CHO membranes. The source says: (§1) Affinity is expressed in terms of inhibition constant (Ki) of the compounds of the invention for DAT, NET and SERT, and it is typically calculated from the IC50 values obtained in competition experiments using Cheng and Prusoff equation (Cheng and Prusoff, Biochem. Pharmacol. 22:3099, 1973). In the context of the present invention pKi values (corresponding to the antilogarithm of Ki) are used instead of Ki; pKi are only estimated to be accurate to about 0.3 log unit.
(§2) Chinese Hamster Ovary (CHO) cells stably expressing either human DAT (hDAT-CHO) or human NET (hNET-CHO) or human SERT (hSERT-CHO) are used for the membrane preparations for radioligand binding assays using Scintillation proximity Assay (SPA) technique. Each cell line is cultured independently in F-12K Nutrient Mixture containing 10% of Fetal Bovine Serum (FBS) supplemented with 450 μg/ml G-418. When cells are at 70-80% of confluence 3 mM Na Butyrate was added to the cell culture medium. After 24 h of incubation, the culture medium was removed and the cells detached with Versene (DAT) or by scraping (NET and SERT). Cell suspension is centrifuged at 41,000 g for 10 minutes at 4° C. The resultant pellets are re-suspended in 15 volumes of Ice-cold buffer (20 mM HEPES, 145 mM NaCl, 5 mM KCl, pH7.3), homogenized using an Ultra Turrax homogeniser and centrifuged as before. The resultant membrane pellets are re-suspended in up to 15 volume of ice-cold buffer, incubated for 20 minutes at 37° C and centrifuged as before at 41,000 g. The final membrane pellets are re-suspended into 5-10 volumes of ice-cold buffer, dispensed into 0.5 ml aliquots and stored at −80° C. until use. Protein concentration for each preparation is determined using Bio-Rad Protein Assay Kit.
(§3) The affinity of the compounds of the invention to the human DAT or NET or SERT transporters is assessed by using the [^3H]WIN-35,428 or [^3H]nisoxetine or [^3H]citalopram binding assays in recombinant human DAT, NET and SERT membranes with the SPA technology. The final assay volume is 50 μL in 384 well plates.
(§4) Briefly, 0.5 μL of test compound in neat DMSO or 0.5 μL of DMSO for total binding (TB) or 0.5 μL of indatraline 1 mM (10 μM final concentration) for non specific binding (NSB) are added to the assay plate. 50 μL of the SPA mixture is added to each well, containing: 30 μg/mL or 10 μg/mL or 25 μg/mL DAT, NET, SERT membranes, respectively; 5 nM [^3H]WIN-35,428 or 5 nM [^3H]nisoxetine or 1 nM [^3H]citalopram, for DAT, NET, SERT assay, respectively; 2.5 mg/mL or 1 mg/mL or 4 mg/mL WGA-PVT SPA beads (PerkinElmer RPNQ0001, for DAT, NET, SERT assay, respectively. All components are added to Assay Buffer (20 mM HEPES pH 7.4, 145 mM NaCl, 5 mM KCl, 0.01% Pluronic F-127). 0.02% BSA was used for DAT binding only. Plates are sealed with Topseal A and centrifuged 1 min, 800 rpm. Plates are loaded into a 1450 Microbeta TriLux (Perkin-Elmer) plate reader and the radioactivity counted after at least 4 hrs or overnight incubation at room temperature. Curve fitting and IC50 estimations are performed using a four parameter model in XLfit (IDBS, Guilford, UK) for Microdoft Excel (Microsoft, Redmond, Wash.).

Experiment [2] deals with human dopamine transporter (DAT) (Homo sapiens (Human), UniProt Q01959). Kind of experiment: Scintillation Proximity Assay (SPA) for human DAT binding ([3H]WIN-35,428). The following applies: recombinant human DAT, CHO.
Source text: as §1, §2, §3, §4
The potency of the compounds of the invention in blocking the DAT function is measured using an uptake assay in a recombinant CHO cell line expressing human DAT (hDAT-CHO). Potency is measured in terms of pIC50 by testing the compounds of invention for the inhibition of [^3H]-dopamine uptake in DAT-CHO cells using a SPA technology in 384 well format.
Briefly, on the days of the experiment hDAT-CHO cells are detached using Versene and added (75,000 cells/mL) to the SPA Mixture, which contains the following components in Assay Buffer (20 mM HEPES, 145 mM NaCl, 5 mM KCl, 2 mM CaCl2, 1 mM MgCl2 and 1 g/L glucose, pH 7.3): 0.02% w/v of Pluronic F127, 2 mg/mL SPA Imaging beads (RPNQ0260, PerkinElmer), 10 μM pargyline and 80 nM of [^3H]-dopamine. […]

Experiment [3] addresses human serotonin transporter (SERT) (Homo sapiens (Human), UniProt P31645). Kind of experiment: Scintillation Proximity Assay (SPA) for human SERT binding ([3H]citalopram). The following applies: recombinant human SERT, CHO membranes.
Source text: as §1, §2, §3, §4

Chain of human serotonin transporter (SERT) (P31645 whole entry): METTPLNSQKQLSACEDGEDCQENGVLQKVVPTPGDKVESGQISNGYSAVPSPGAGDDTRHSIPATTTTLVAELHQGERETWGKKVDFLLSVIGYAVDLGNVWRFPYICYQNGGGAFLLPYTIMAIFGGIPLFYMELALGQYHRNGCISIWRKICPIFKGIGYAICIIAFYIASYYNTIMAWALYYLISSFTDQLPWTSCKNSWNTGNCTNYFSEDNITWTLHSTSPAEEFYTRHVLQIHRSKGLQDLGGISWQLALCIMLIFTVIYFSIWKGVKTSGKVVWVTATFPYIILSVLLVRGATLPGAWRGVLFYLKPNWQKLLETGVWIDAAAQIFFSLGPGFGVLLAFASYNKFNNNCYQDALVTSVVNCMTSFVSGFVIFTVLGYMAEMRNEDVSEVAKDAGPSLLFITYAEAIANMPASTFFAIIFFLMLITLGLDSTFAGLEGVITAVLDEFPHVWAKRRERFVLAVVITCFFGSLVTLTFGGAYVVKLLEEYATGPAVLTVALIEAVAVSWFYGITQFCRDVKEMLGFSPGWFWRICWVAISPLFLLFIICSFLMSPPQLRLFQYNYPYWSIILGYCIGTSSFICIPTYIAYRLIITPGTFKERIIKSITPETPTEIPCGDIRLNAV
Chain of human dopamine transporter (DAT) (Q01959 whole entry): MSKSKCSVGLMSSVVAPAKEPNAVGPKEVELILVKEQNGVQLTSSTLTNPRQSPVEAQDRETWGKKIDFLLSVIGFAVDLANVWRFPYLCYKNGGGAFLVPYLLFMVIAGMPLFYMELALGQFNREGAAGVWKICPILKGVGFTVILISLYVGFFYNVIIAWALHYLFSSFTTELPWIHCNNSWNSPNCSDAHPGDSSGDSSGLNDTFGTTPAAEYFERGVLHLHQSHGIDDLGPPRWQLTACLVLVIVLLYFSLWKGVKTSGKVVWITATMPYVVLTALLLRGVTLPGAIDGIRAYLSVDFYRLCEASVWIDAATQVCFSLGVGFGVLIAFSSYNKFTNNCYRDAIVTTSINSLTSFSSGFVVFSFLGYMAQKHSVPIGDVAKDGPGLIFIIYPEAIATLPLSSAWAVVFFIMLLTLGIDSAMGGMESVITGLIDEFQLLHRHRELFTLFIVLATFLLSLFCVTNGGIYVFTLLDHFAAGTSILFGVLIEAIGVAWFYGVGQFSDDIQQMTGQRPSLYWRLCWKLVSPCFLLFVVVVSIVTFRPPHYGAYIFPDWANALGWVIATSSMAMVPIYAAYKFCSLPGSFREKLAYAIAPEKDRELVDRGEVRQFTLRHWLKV
Chain of human norepinephrine transporter (NET) (P23975 whole entry): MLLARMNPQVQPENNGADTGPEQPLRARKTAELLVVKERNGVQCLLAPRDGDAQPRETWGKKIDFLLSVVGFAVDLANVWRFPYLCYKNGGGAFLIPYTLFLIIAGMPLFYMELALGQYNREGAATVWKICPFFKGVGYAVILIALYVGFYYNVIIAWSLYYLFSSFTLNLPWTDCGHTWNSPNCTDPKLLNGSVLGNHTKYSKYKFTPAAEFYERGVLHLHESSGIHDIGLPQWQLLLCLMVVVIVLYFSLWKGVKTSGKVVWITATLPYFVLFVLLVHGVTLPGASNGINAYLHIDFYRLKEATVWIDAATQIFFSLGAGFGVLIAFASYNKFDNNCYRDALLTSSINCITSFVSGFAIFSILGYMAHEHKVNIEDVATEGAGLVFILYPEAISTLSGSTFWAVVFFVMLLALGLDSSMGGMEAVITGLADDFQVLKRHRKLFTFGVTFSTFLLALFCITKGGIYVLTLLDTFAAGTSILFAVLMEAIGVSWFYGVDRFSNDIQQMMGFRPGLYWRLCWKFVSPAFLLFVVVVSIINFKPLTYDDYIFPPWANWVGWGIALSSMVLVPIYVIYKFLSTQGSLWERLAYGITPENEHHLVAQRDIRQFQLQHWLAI

Regarding `CC(C)(C)NCC1(O)CCN(c2nc(Oc3cccc(F)c3)cc(C(F)(F)F)n2)CC1` [Example 9, 4-[(tert-butylamino)methyl]-1-[4-(3-fluorophenoxy)-6-(trifluoromethyl)pyrimidin-2-yl]piperidin-4-ol], the “pIC50 NET” value in experiment [1] turned out to be 6.02. Also, the “pIC50 DAT” value in experiment [2] was 7.91. In experiment [3], the IC50 is 11.2 µM.
Take `O=C1CCCN1CC1(O)CCN(c2nc(Oc3cccc(F)c3)cc(C(F)(F)F)n2)CC1` [Example 10, 1-({1-[4-(3-fluorophenoxy)-6-(trifluoromethyl)pyrimidin-2-yl]-4-hydroxypiperidin-4-yl}methyl)pyrrolidin-2-one]: the “pIC50 NET” value in experiment [1] came to 5.33. For the same molecule, the “pIC50 DAT” value in experiment [2] is reported as 7.18. Besides, the IC50 in experiment [3] was greater than 100 µM.
In the case of `Cl.NCC1(O)CCN(c2nc(Oc3cccc(F)c3)cc(C(F)(F)F)n2)CC1` [Example 12, 4-(aminomethyl)-1-[4-(3-fluorophenoxy)-6-(trifluoromethyl)pyrimidin-2-yl]piperidin-4-ol hydrochloride], the “pIC50 NET” value in experiment [1] was found to be 6.84. In experiment [2], the “pIC50 DAT” value turned out to be 8.56. Further, in experiment [3], the IC50 was 8.71 µM.
The corresponding values for `NCC1(O)CCN(c2cc(F)cc(Oc3cccc(F)c3)c2)CC1` [Example 14, 4-(aminomethyl)-1-[3-fluoro-5-(3-fluorophenoxy)phenyl]piperidin-4-ol] are 6.93, 8.82 and 0.603 µM.
Regarding `NCC1(O)CCN(c2cc(F)cc(Oc3cccc(F)c3)c2F)CC1` [Example 15, 4-(aminomethyl)-1-[2,5-difluoro-3-(3-fluorophenoxy)phenyl]piperidin-4-ol], the “pIC50 NET” value in experiment [1] stood at 7.24. Moreover, the “pIC50 DAT” value in experiment [2] came out at 9.04. Moreover, the IC50 in experiment [3] is 0.661 µM.
Taken in the same sequence, the figures for `NCC1(O)CCN(c2cccc(Oc3ccccc3)c2F)CC1` [Example 16, 4-(aminomethyl)-1-(2-fluoro-3-phenoxyphenyl)piperidin-4-ol] were 6.01, 7.81 and 1.45 µM.
Turning to `NCC1(O)CCN(c2cccc(Oc3cccc(F)c3)c2F)CC1` [Example 17, 4-(aminomethyl)-1-[2-fluoro-3-(3-fluorophenoxy)phenyl]piperidin-4-ol], the “pIC50 NET” value in experiment [1] amounted to 6.49. Further, in experiment [2], the “pIC50 DAT” value was 8.17. In addition, the IC50 in experiment [3] was 2.09 µM.
Consider `NC1(CO)CCN(c2nc(Oc3cccc(F)c3)cc(C(F)(F)F)n2)CC1` [Example 20, {4-amino-1-[4-(3-fluorophenoxy)-6-(trifluoromethyl)pyrimidin-2-yl]piperidin-4-yl}methanol], for which, in experiment [1], the “pIC50 NET” value came to 6.50. The “pIC50 DAT” value in experiment [2] turned out to be 8.39. The IC50 in experiment [3] is 5.13 µM.
On to `O=C(CC1CC1)NCC1(O)CCN(c2nc(Oc3cccc(F)c3)cc(C(F)(F)F)n2)CC1` [Example 22, 2-cyclopropyl-N-({1-[4-(3-fluorophenoxy)-6-(trifluoromethyl)pyrimidin-2-yl]-4-hydroxypiperidin-4-yl}methyl)acetamide], for which the “pIC50 NET” value in experiment [1] worked out at 5.76. Also, the “pIC50 DAT” value in experiment [2] amounted to 7.58. For the same molecule, in experiment [3], the IC50 was greater than 100 µM.
The corresponding values for `CC(C)OCC(=O)NCC1(O)CCN(c2nc(Oc3cccc(F)c3)cc(C(F)(F)F)n2)CC1` [Example 23, N-({1-[4-(3-fluorophenoxy)-6-(trifluoromethyl)pyrimidin-2-yl]-4-hydroxypiperidin-4-yl}methyl)-2-(propan-2-yloxy)acetamide] are 5.55, 7.75 and greater than 100 µM.
On to `CC(=O)NCC1(O)CCN(c2nc(Oc3cccc(F)c3)cc(C(F)(F)F)n2)CC1` [Example 24, N-({1-[4-(3-fluorophenoxy)-6-(trifluoromethyl)pyrimidin-2-yl]-4-hydroxypiperidin-4-yl}methyl)acetamide], for which, in experiment [1], the “pIC50 NET” value was 5.04. Also, the “pIC50 DAT” value in experiment [2] stood at 7.42. In experiment [3], the IC50 is greater than 100 µM.
For `OC1(CNC2CC2)CCN(c2nc(Oc3cccc(F)c3)cc(C(F)(F)F)n2)C1` (stereo not drawn) [Example 30, 3-[(cyclopropylamino)methyl]-1-[4-(3-fluorophenoxy)-6-(trifluoromethyl)pyrimidin-2-yl]pyrrolidin-3-ol], the “pIC50 NET” value in experiment [1] came out at 6.78. Further, the “pIC50 DAT” value in experiment [2] is given as 8.72. Besides, in experiment [3], the IC50 was 34.7 µM.
As for `CC(C)C(=O)NCC1(O)CCN(c2nc(Oc3cccc(F)c3)cc(C(F)(F)F)n2)C1` (stereo not drawn) [Example 34, N-({1-[4-(3-fluorophenoxy)-6-(trifluoromethyl)pyrimidin-2-yl]-3-hydroxypyrrolidin-3-yl}methyl)-2-methylpropanamide], in experiment [1], the “pIC50 NET” value is on record as 4.72. Also, the “pIC50 DAT” value in experiment [2] amounted to 6.50. In experiment [3], the IC50 was greater than 100 µM.
On to `O=C(NCC1(O)CCN(c2nc(Oc3cccc(F)c3)cc(C(F)(F)F)n2)C1)C1CNC1` (stereo not drawn) [Example 35, N-({1-[4-(3-fluorophenoxy)-6-(trifluoromethyl)pyrimidin-2-yl]-3-hydroxypyrrolidin-3-yl}methyl)azetidine-3-carboxamide], for which the “pIC50 NET” value in experiment [1] is recorded as 6.56. In addition, in experiment [2], the “pIC50 DAT” value was 8.25. The IC50 in experiment [3] was 33.1 µM.
As for “(3R or 3S)-3-[(cyclopropylamino)methyl]-1-[4-(3-fluorophenoxy)-6-(trifluoromethyl)pyrimidin-2-yl]pyrrolidin-3-ol [Example 32]”, in experiment [1], the “pIC50 NET” value came out at 6.63. Also, the “pIC50 DAT” value in experiment [2] is listed as 8.47. Besides, the “pIC50 SERT” value in experiment [3] is on record as 4.36.
